The values below come from patent publication US20100173888A1 (Pfizer Inc, priority 2008, published 2010).

Structures can show the parent of a compound that is named as a salt.

Sequence of human recombinant H-PGDS (O60760 whole entry): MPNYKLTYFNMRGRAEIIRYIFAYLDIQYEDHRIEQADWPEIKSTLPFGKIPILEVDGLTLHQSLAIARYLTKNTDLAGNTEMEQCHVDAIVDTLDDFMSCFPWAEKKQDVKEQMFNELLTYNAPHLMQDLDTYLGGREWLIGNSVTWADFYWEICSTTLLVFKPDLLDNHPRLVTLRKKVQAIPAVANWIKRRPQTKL

The experiment deals with human recombinant H-PGDS (Homo sapiens, UniProt O60760). The experiment in a line: Fluorescence intensity h-PGDS TBA enzyme assay (PGH2 depletion, MDA/TBA fluorescence). The class given is biochemical. The settings on record: 1:175,000 human recombinant H-PGDS, 42 second reaction, 3-fold serial dilutions, highest concentration typically 1 μM. The protocol:
Fluoresecence Intensity h-PGDSTBA Enzyme Assay
Prostaglandin D Synthase (PGDS) converts the substrate prostaglandin H2 (PGH2) to prostaglandin D2. The depletion of PGH2 was measured via an Fe(II) reduction of the remaining PGH2 to malondialdehyde (MDA) and 12-HHT. The enzyme assay is based on the quantitative formation of a fluorescent complex from the non-fluorescent compounds MDA and 2-thiobarbituric acid (TBA), substantially as described in U.S. patent application publication US-2004/152148 by Lombardt.
The enzyme assay (31 μls) contained 100 mM Tris base pH 8.0, 100 μM MgCl2, 0.1 mg/ml IgG Rabbit serum, 5.0 μM PGH2 (Cayman; ethanol solution, #17020), 2.5 mM L-Glutathione (Sigma; reduced form. #G4251), 1:175,000 human recombinant H-PGDS (from 1 mg/ml), 0.5% DMSO and inhibitor (varying concentration). Three μls of diluted inhibitor (dissolved in DMSO) was plated into a 384-well assay plate followed by a 25 μl addition of an enzyme solution containing h-PGDS, Tris, MgCl2, IgG and L-Glutathione. After preincubation of inhibitor and enzyme solution for 10 minutes at room temperature, the reaction was initiated with a 3 μl addition of substrate solution in 10 mM HCl. The reaction was terminated after 42 second by the addition (3 μl) of stop buffer containing FeCl2 and citric acid. After addition of 45.5 μls of TBA plates were heated for one hour in a 70° C. oven. Plates were cooled at room temperature overnight and read on a plate reader the next day with excitation @ 530 nm and emission @ 565 nm.
IC50' s of inhibitors were calculated with a 4-parameter fit using 11 inhibitor concentrations in duplicate with 3-fold serial dilutions. Controls on each plate included no inhibitor (zero % effect) and an inhibitor 10-fold in excess of its' IC50 (100% effect). The highest inhibitor concentration tested was typically 1 μM.
What is called IC50 is the concentration that inhibits the measured activity by half. With “6-(3-Fluorophenyl)-N-(cis-2-hydroxy-2,3-dihydro-1H-inden-1yl]nicotinamide [Example 130]”, the half-inhibitory concentration (IC50) was 15.2 nM.
As to `O=C(NC1CCC(O)(C(F)(F)F)CC1)c1ccc(-c2cccc(F)c2)nc1` (mixture of isomers) [Example 151, 6-(3-Fluorophenyl)-N-(trans 4-hydroxy-4-trifluoromethylcyclohexyl)nicotinamide and 6-(3-Fluorophenyl)-N-(cis 4-hydroxy-4-trifluoromethylcyclohexyl)nicotinamide], the IC50 is 10.3 nM.
On to `CCN1CCC(CNC(=O)[C@H]2CC[C@H](NC(=O)c3ccc(-c4cccc(F)c4)nc3)CC2)C1` (relative stereo) [Example 113F, N-(trans-4-{[(1-ethylpyrrolidin-3-yl)methyl]carbamoyl}cyclohexyl)-6-(3-fluorophenyl)nicotinamide], for which the IC50 is 60 nM.
With `O=C(N[C@H]1CC[C@@H](O)C1)c1ccc(-c2cccc(F)c2)nc1` (relative stereo) [Example 158, 6-(3-fluorophenyl)-N-[cis-3-hydroxycyclopentyl]nicotinamide], the half-maximal inhibitory concentration (IC50) is 68.9 nM.
Turning to `CNCCNC(=O)[C@H]1CCC[C@@H](NC(=O)c2ccc(-c3cccc(F)c3)nc2)C1` (relative stereo) [Example 189, 6-(3-Fluorophenyl)-N-cis-3-{([2-(methylamino)ethyl]carbamoyl}cyclohexyl]nicotinamide], the IC50 turned out to be 13.7 nM.
Regarding `O=C(N[C@@H]1CCC[C@H](C(=O)NC2CCNCC2)C1)c1ccc(-c2cccc(F)c2)nc1` (relative stereo) [Example 191, 6-(3-Fluorophenyl)-N-cis-3-(piperidin-4-ylcarbamoyl)cyclohexyl]nicotinamide hydrochloride], the half-inhibitory concentration (IC50) came out at 29.2 nM.
As for `CC(C)(CO)NC(=O)[C@H]1CCC[C@@H](NC(=O)c2ccc(-c3cccc(F)c3)nc2)C1` (relative stereo) [Example 196], the IC50 came out at 9.6 nM.
With `CN(C)C(=O)CNC(=O)[C@H]1CCC[C@@H](NC(=O)c2ccc(-c3cccc(F)c3)nc2)C1` (relative stereo) [Example 198], the IC50 was determined as 19.1 nM.
For the compound `CC(O)[C@H]1CCC[C@@H](NC(=O)c2ccc(-c3cccc(F)c3)nc2)C1` (relative stereo) [Example 199, 6-(3-Fluorophenyl)-N-[(cis)-3-(1-hydroxyethyl)cyclohexyl]nicotinamide], the IC50 stood at 21.8 nM.
In the case of `N[C@@H]1CCC[C@H](NC(=O)c2ccc(-c3cccc(F)c3)nc2)C1` (relative stereo) [Example 200, N-[cis-3-Aminocyclohexyl]-6-(3-fluorophenyl)nicotinamide], the IC50 amounted to 189 nM.
As for `O=C(CO)N[C@@H]1CCC[C@H](NC(=O)c2ccc(-c3cccc(F)c3)nc2)C1` (relative stereo) [Example 202], the IC50 worked out at 17.1 nM.
As for `COCC(=O)N[C@@H]1CCC[C@H](NC(=O)c2ccc(-c3cccc(F)c3)nc2)C1` (relative stereo) [Example 203, 6-(3-Fluorophenyl)-N-cis-[3-(2-methoxyacetylamino)cyclohexyl]nicotinamide], the IC50 is 17.1 nM.
`CN1CCN(CC(=O)N[C@@H]2CCC[C@H](NC(=O)c3ccc(-c4cccc(F)c4)nc3)C2)CC1` (relative stereo) [Example 204]: the IC50 worked out at 68.7 nM.
In the case of `CS(=O)(=O)N[C@@H]1CCC[C@H](NC(=O)c2ccc(-c3cccc(F)c3)nc2)C1` (relative stereo) [Example 207, 6-(3-Fluoro-phenyl)-N-cis-(3-methanesulfonylamino-cyclohexyl)-nicotinamide], the IC50 worked out at 81.1 nM.
For `CN1CCCCC1C(=O)N[C@H]1CC[C@@H](NC(=O)c2ccc(-c3cccc(F)c3)nc2)CC1` (relative stereo) [Example 217, 6-(3-fluorophenyl)-N-(cis-4-{[(1-methylpiperidin-2-yl)carbonyl]amino}cyclohexyl)nicotinamide], the 50% inhibitory concentration (IC50) worked out at 67.1 nM.
For `CN1CCCC(C(=O)N[C@H]2CC[C@@H](NC(=O)c3ccc(-c4cccc(F)c4)nc3)CC2)C1` (relative stereo) [Example 219, 6-(3-fluorophenyl)-N-(cis-4-{[(1-methylpiperidin-3-yl)carbonyl]amino}cyclohexyl)nicotinamide] the value was 32.7 nM; for `CC(O)C(=O)N[C@H]1CC[C@@H](NC(=O)c2ccc(-c3cccc(F)c3)nc2)CC1` (relative stereo) [Example 222, 6-(3-fluorophenyl)-N-[cis-4-(lactoylamino)cyclohexyl]nicotinamide], 50.8 nM.
In the case of `C[C@]1(C(=O)O)CCC[C@@H](NC(=O)c2ccc(-c3cccc(F)c3)nc2)C1` (relative stereo) [Example 231, (1S*,3R*)-3-({[6-(3-Fluorophenyl)pyridin-3-yl]carbonyl}amino)-1-methylcyclohexane carboxylic acid] it was 13.8 nM; in that of `CCN1CCN(C(=O)[C@@]2(C)CCC[C@@H](NC(=O)c3ccc(-c4cccc(F)c4)nc3)C2)CC1` (relative stereo) [Example 233, N-{(1R*,3S*)-3-[(4-Ethylpiperazin-1-yl)carbonyl]-3-methylcyclohexyl}-6-(3-fluorophenyl)nicotinamide], 4.1 nM; in that of `CN(C)C(=O)[C@@]1(C)CCC[C@@H](NC(=O)c2ccc(-c3cccc(F)c3)nc2)C1` (relative stereo) [Example 237, N-[(1R*,3S*)-3-(Dimethylcarbamoyl)-3-methylcyclohexyl]-6-(3-fluorophenyl)nicotinamide], 5.1 nM.
For the compound `O=C(N[C@@H]1CCC[C@@H](C(=O)O)C1)c1ccc(-c2cccc(F)c2)nc1` (relative stereo) [Example 238A, trans-3-({[6-(3-Fluorophenyl)pyridin-3-yl]carbonyl}amino)cyclohexanecarboxylic acid], the IC50 was found to be 27.4 nM.
Consider `CN(C)C(=O)[C@@H]1CCC[C@@H](NC(=O)c2ccc(-c3cccc(F)c3)nc2)C1` (relative stereo) [Example 238], for which the IC50 amounted to 47.1 nM.
Turning to `O=C(N[C@@H]1CCC[C@@H](C(=O)N2CCCC2)C1)c1ccc(-c2cccc(F)c2)nc1` (relative stereo) [Example 239], the half-maximal inhibitory concentration (IC50) came to 34.9 nM.
For `COCCNC(=O)[C@@H]1CCC[C@@H](NC(=O)c2ccc(-c3cccc(F)c3)nc2)C1` (relative stereo) [Example 240], the IC50 was found to be 26.5 nM.
Consider `O=C(N[C@@H]1CCC[C@@H](C(=O)N2CCOCC2)C1)c1ccc(-c2cccc(F)c2)nc1` (relative stereo) [Example 241], for which the IC50 was 15.4 nM.
For `O=C(N[C@@H]1CCC[C@@H](C(=O)NCCCO)C1)c1ccc(-c2cccc(F)c2)nc1` (relative stereo) [Example 242], the IC50 was 19.8 nM.
In the case of `O=C(N[C@@H]1CCC[C@@H](C(=O)N2CCNCC2)C1)c1ccc(-c2cccc(F)c2)nc1` (relative stereo) [Example 243], the IC50 is 29.1 nM.
Consider `N[C@H]1CCC[C@H](NC(=O)c2ccc(-c3cccc(F)c3)nc2)C1` (relative stereo) [Example 244, N-[trans-3-Aminocyclohexyl]-6-(3-fluorophenyl)nicotinamide], for which the IC50 is 192 nM.
In the case of `O=C(CO)N[C@H]1CCC[C@H](NC(=O)c2ccc(-c3cccc(F)c3)nc2)C1` (relative stereo) [Example 245] it was 21.6 nM.
For `CN1CCN(CC(=O)N[C@H]2CCC[C@H](NC(=O)c3ccc(-c4cccc(F)c4)nc3)C2)CC1` (relative stereo) [Example 247], the IC50 came to 57 nM.
With `CC(C)(O)C(=O)N[C@H]1CCC[C@H](NC(=O)c2ccc(-c3cccc(F)c3)nc2)C1` (relative stereo) [Example 248, 6-(3-Fluorophenyl)-N-trans-[3-(2-hydroxy-2-methylpropionylamino)cyclohexyl]nicotinamide], the IC50 came out at 10.4 nM.
Regarding `CS(=O)(=O)N[C@H]1CCC[C@H](NC(=O)c2ccc(-c3cccc(F)c3)nc2)C1` (relative stereo) [Example 249, 6-(3-Fluoro-phenyl)-N-trans-(3-methanesulfonylamino-cyclohexyl)-nicotinamide], the IC50 was found to be 13.9 nM.
Turning to `O=C(N[C@H]1CCC[C@H](CO)C1)c1ccc(-c2cccc(F)c2)nc1` (relative stereo) [Example 250], the concentration for half-maximal inhibition (IC50) came to 26.4 nM.
On to `O=C(N[C@@H]1CCC[C@H](CO)C1)c1ccc(-c2cccc(F)c2)nc1` (relative stereo) [Example 251A], for which the half-maximal inhibitory concentration (IC50) was 13.3 nM.
In the case of `COCC(=O)NC[C@H]1CCC[C@@H](NC(=O)c2ccc(-c3cccc(F)c3)nc2)C1` (relative stereo) [Example 252] it was 17.1 nM; in that of `CN(C)CC(=O)NC[C@H]1CCC[C@@H](NC(=O)c2ccc(-c3cccc(F)c3)nc2)C1` (relative stereo) [Example 253], 50.9 nM; in that of `Cn1nccc1C(=O)NC[C@H]1CCC[C@@H](NC(=O)c2ccc(-c3cccc(F)c3)nc2)C1` (relative stereo) [Example 255], 12.3 nM.
